Test results: patent US20260334439A1, “BCAT2 INHIBITORS” (Agios Pharmaceuticals, Inc., priority 2023, published 2026)

Experiments:
BCAT2 [1] = biological target: T1, BCAT2 (Homo sapiens, UniProt O15382); assay: BCAT2 cell inhibition using engineered A549 cells (MUT KO, BCAT1 KO; 13C6-KMV formation by LC-MS/MS); format: cell-based; design: expressed endogenous BCAT2; endogenous in cells; host or cells: A549 cells, MUT knockout and BCAT1 knockout
T1 sequence (O15382 28-392): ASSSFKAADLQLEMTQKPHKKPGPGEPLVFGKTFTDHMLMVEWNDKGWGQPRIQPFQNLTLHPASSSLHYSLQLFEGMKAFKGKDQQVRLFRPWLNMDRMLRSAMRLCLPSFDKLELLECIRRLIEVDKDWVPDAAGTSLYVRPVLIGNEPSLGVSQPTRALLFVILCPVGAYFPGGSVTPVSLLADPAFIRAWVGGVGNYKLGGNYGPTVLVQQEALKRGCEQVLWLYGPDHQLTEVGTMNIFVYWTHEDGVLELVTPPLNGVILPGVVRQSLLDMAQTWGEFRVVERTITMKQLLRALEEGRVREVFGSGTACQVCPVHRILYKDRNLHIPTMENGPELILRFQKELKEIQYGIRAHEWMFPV
How it was run: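 Medium 13C6-KMV formation is read by LC-MS/MS after PFBHA derivatization with d8-KMV internal standard. Cells are CRISPR MUT/BCAT1 double-knockout A549 expressing endogenous BCAT2, given compound 15 min before labelled isoleucine (800 uM, added 1:1) for 24 h. CTG viability run in parallel; replicates averaged.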

BCAT2 [2] = biological target: T1, BCAT2; assay: BCAT2 in vitro enzyme inhibition assay (hBCAT2, glutamate dehydrogenase/diaphorase/resazurin coupled fluorescence read); format: biochemical; conditions: hBCAT2, 1 h preincubation at 25° C., one hour reaction; average where tested multiple times
How it was run: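 Coupled GDH/diaphorase/resazurin fluorescence (Ex 540/Em 590) read after 1 h reaction at 25 °C, SDS-stopped; enzyme (0.33 μg/mL in mix) first preincubated 1 h with compound, 10-point 3-fold series from 100 μM final, Tris pH 8.0 buffer with NaCl, BSA; technical duplicates, averaged across tests.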

[3] = read-out: BCAT2 Cell Inhibition (IC50), engineered A549 cells, 24 hours, 13C6-KMV in media, average where tested multiple times

| SMILES | IC50 (BCAT2 [1]; [3]) [nM] | IC50 (BCAT2 [2]) [nM] | IC50 (BCAT2 [1]) [nM] |
| --- | --- | --- | --- |
| COc1ccc(Cl)cc1C(=O)N[C@@H]1C[C@H](n2c(-c3ncccc3F)nc3cnc(-c4nc[nH]n4)cc32)CN(C)C1 [Example 137, 5-chloro-N-((3R,5S)-5-(2-(3-fluoropyridin-2-yl)-6-(1H-1,2,4-triazol-3-yl)-1H-imidazo[4,5-c]pyridin-1-yl)-1-methylpiperidin-3-yl)-2-methoxybenzamide] | > 1000 | 100 to 500 |  |
| O=C(N[C@H]1CCC[C@@H](n2c(-c3ccccc3F)nc3cnc(-c4nc[nH]n4)cc32)C1)c1ccccc1Cl [Example 3, 2-chloro-N-((1S,3R)-3-(2-(2-fluorophenyl)-6-(1H-1,2,4-triazol-3-yl)-1H-imidazo[4,5-c]pyridin-1-yl)cyclohexyl)benzamide] |  | < 100 | 100 to 500 |
| CCNc1ccc(Cl)cc1C(=O)N[C@H]1CCC[C@@H](n2c(-c3ccccc3F)nc3cnc(-c4nc[nH]n4)cc32)C1 [Example 32, 5-chloro-2-(ethylamino)-N-((1S,3R)-3-(2-(2-fluorophenyl)-6-(1H-1,2,4-triazol-3-yl)-1H-imidazo[4,5-c]pyridin-1-yl)cyclohexyl)benzamide] | > 1000 | 100 to 500 |  |
| CO[C@@H]1C[C@H](N2Cc3ccc(F)cc3C2=O)C[C@H](n2c(-c3ccccc3F)nc3cnc(-c4nc[nH]n4)cc32)C1 [Example 195, 6-fluoro-2-((1R,3S,5S)-3-(2-(2-fluorophenyl)-6-(1H-1,2,4-triazol-3-yl)-1H-imidazo[4,5-c]pyridin-1-yl)-5-methoxycyclohexyl)isoindolin-1-one] |  | < 100 | < 100 |
| O=C1c2cc(F)ccc2CN1[C@H]1CCC[C@@H](n2c(-c3c(F)cccc3F)nc3cnc(-n4nccn4)cc32)[C@@H]1O [Example 186, 2-((1S,2S,3R)-3-(2-(2,6-difluorophenyl)-6-(2H-1,2,3-triazol-2-yl)-1H-imidazo[4,5-c]pyridin-1-yl)-2-hydroxycyclohexyl)-6-fluoroisoindolin-1-one] |  | < 100 | < 100 |
| CO[C@H]1C[C@H](NC(=O)c2cc(Cl)ccn2)C[C@H](n2c(-c3ccccc3F)nc3cnc(-c4nc[nH]n4)cc32)C1 [Example 116, 4-chloro-N-((1R,3S,5S)-3-(2-(2-fluorophenyl)-6-(1H-1,2,4-triazol-3-yl)-1H-imidazo[4,5-c]pyridin-1-yl)-5-methoxycyclohexyl)picolinamide] |  | < 100 | < 100 |
| CCN(C)c1nc2cnc(-c3nc[nH]n3)cc2n1[C@@H]1CCC[C@H](NC(=O)c2cc(Cl)ccn2)C1 [Example 21, 4-chloro-N-((1S,3R)-3-(2-(ethyl(methyl)amino)-6-(1H-1,2,4-triazol-3-yl)-1H-imidazo[4,5-c]pyridin-1-yl)cyclohexyl)picolinamide] | > 1000 | 100 to 500 |  |
| O=C1c2cc(F)ccc2CN1[C@H]1CCC[C@@H](n2c(-c3c(F)cccc3F)nc3cnc(-c4ncccn4)cc32)[C@@H]1O [Example 187, 2-((1S,2S,3R)-3-(2-(2,6-difluorophenyl)-6-(pyrimidin-2-yl)-1H-imidazo[4,5-c]pyridin-1-yl)-2-hydroxycyclohexyl)-6-fluoroisoindolin-1-one] |  | < 100 | 100 to 500 |
| O=C(N[C@H]1CCC[C@@H](n2c(-c3ccccc3F)nc3cnc(-c4nc[nH]n4)cc32)C1)c1cc(Cl)ccc1F [Example 56, 5-chloro-2-fluoro-N-((1S,3R)-3-(2-(2-fluorophenyl)-6-(1H-1,2,4-triazol-3-yl)-1H-imidazo[4,5-c]pyridin-1-yl)cyclohexyl)benzamide] |  | < 100 | < 100 |
| CN1C[C@@H](NC(=O)c2cc(F)ccn2)C[C@@H](n2c(-c3ccccc3F)nc3cnc(-c4nc[nH]n4)cc32)C1 [Example 133, 4-fluoro-N-((3S,5R)-5-(2-(2-fluorophenyl)-6-(1H-1,2,4-triazol-3-yl)-1H-imidazo[4,5-c]pyridin-1-yl)-1-methylpiperidin-3-yl)picolinamide] | > 1000 | 100 to 500 |  |
| CN1C[C@H](N2Cc3ccc(F)cc3C2=O)C[C@H](n2c(-c3ccccc3OCCO)nc3ccc(-c4ncccn4)cc32)C1 [Example 243, 6-fluoro-2-((3R,5S)-5-(2-(2-(2-hydroxyethoxy)phenyl)-6-(pyrimidin-2-yl)-1H-benzo[d]imidazol-1-yl)-1-methylpiper-idin-3-yl)isoindolin-1-one] |  | < 100 | 100 to 500 |
| COc1ncc(Cl)cc1C(=O)N[C@H]1CCC[C@@H](n2c(-c3ccccc3F)nc3cnc(-c4nc[nH]n4)cc32)C1 [Example 22, 5-chloro-N-((1S,3R)-3-(2-(2-fluorophenyl)-6-(1H-1,2,4-triazol-3-yl)-1H-imidazo[4,5-c]pyridin-1-yl)cyclohexyl)-2-methoxynicotinamide] |  | < 100 | < 100 |
| CN1C[C@H](NC(=O)c2cc(F)ccc2F)C[C@H](n2c(-c3ccccc3F)nc3cnc(-c4nc[nH]n4)cc32)C1 [Example 153, 2,5-difluoro-N-((3R,5S)-5-(2-(2-fluorophenyl)-6-(1H-1,2,4-triazol-3-yl)-1H-imidazo[4,5-c]pyridin-1-yl)-1-methylpiperidin-3-yl)benzamide] |  | < 100 | 100 to 500 |

Next, values leading:

| IC50 (BCAT2 [1]; [3]) [nM] | IC50 (BCAT2 [2]) [nM] | IC50 (BCAT2 [1]) [nM] | SMILES |
| --- | --- | --- | --- |
| > 1000 | < 100 |  | CN(C)CCOc1ccc(Cl)cc1C(=O)N[C@H]1CCC[C@@H](n2c(-c3ccccc3F)nc3cnc(-c4nc[nH]n4)cc32)C1 [Example 55, 5-chloro-2-(2-(dimethylamino)ethoxy)-N-((1S,3R)-3-(2-(2-fluorophenyl)-6-(1H-1,2,4-triazol-3-yl)-1H-imidazo[4,5-c]pyridin-1-yl)cyclohexyl)benzamide] |
|  | < 100 | 100 to 500 | O=C(N[C@H]1CCC[C@@H](n2c(-c3ccccc3F)nc3ccc(-c4nc[nH]n4)cc32)C1)c1cc(F)ccn1 [Example 226, 4-fluoro-N-((1S,3R)-3-(2-(2-fluorophenyl)-6-(1H-1,2,4-triazol-3-yl)-1H-benzo[d]imid-azol-1-yl)cyclohexyl)picolin-amide] |
|  | < 100 | < 100 | O=C1c2cc(Cl)ccc2OCN1[C@H]1CCC[C@@H](n2c(-c3ccccc3OC(F)F)nc3cnc(-c4nc[nH]n4)cc32)C1 [compound 205] |
|  | < 100 | < 100 | O=C1c2ccccc2CN1[C@H]1CCC[C@@H](n2c(-c3ccccc3F)nc3cnc(-c4nc[nH]n4)cc32)C1 [Example 174, 2-((1S,3R)-3-(2-(2-fluorophenyl)-6-(1H-1,2,4-triazol-3-yl)-1H-imidazo[4,5-c]pyridin-1-yl)cyclohexyl)isoindolin-1-one] |
|  | < 100 | 500 to 1000 | O=C(N[C@H]1CCC[C@@H](n2c(-c3ccccc3F)nc3cnc(-c4nc[nH]n4)cc32)C1)c1ncccc1F [Example 11, 3-fluoro-N-((1S,3R)-3-(2-(2-fluorophenyl)-6-(1H-1,2,4-triazol-3-yl)-1H-imidazo[4,5-c]pyridin-1-yl)cyclohexyl)picolinamide] |
|  | < 100 | 100 to 500 | O=C(N[C@H]1CCC[C@@H](n2c(-c3c(O)cccc3F)nc3ccc(-c4nc[nH]n4)cc32)C1)c1cc(Cl)ccn1 [Example 227, 4-chloro-N-((1S,3R)-3-(2-(2-fluoro-6-hydroxyphenyl)-6-(1H-1,2,4-triazol-3-yl)-1H-benzo[d]imidazol-1-l)cyclohexyl)picolin-amide] |
|  | < 100 | < 100 | O=C1c2cc(F)ccc2CN1[C@H]1CCC[C@@H](n2c(-c3ccccc3OC(F)F)nc3cnc(-c4nc[nH]n4)cc32)C1 [compound 180] |
|  | < 100 | < 100 | CO[C@H]1C[C@H](N2Cc3ccc(F)cc3C2=O)C[C@H](n2c(-c3ccccc3OCCO)nc3ccc(-c4ncccn4)cc32)C1 [Example 194, 6-fluoro-2-((1R,3S,5R)-3-(2-(2-(2-hydroxyethoxy)phenyl)-6-(pyrimidin-2-yl)-1H-benzo[d]imidazol-1-yl)-5-methoxycyclohexyl)isoindolin-1-one] |
| > 1000 | < 100 |  | CO[C@H]1C[C@H](NC(=O)c2cc(F)ccn2)C[C@H](n2c(-c3ccccc3F)nc3ccc(-c4nc[nH]n4)cc32)C1 [Example 221, 4-fluoro-N-((1S,3R,5R)-3-(2-(2-fluorophenyl)-6-(1H-1,2,4-triazol-3-yl)-1H-benzo[d]imid-azol-1-yl)-5-methoxycyclohex-yl)picolinamide] |
|  | < 100 | < 100 | O=C(N[C@H]1CCC[C@@H](n2c(-c3ccccc3F)nc3cnc(-c4nc[nH]n4)cc32)C1)c1cc(C(F)F)ccn1 [compound 100] |
|  | < 100 | < 100 | O=C1c2cc(F)ccc2OCN1[C@H]1CCC[C@@H](n2c(-c3ccccc3F)nc3cnc(-c4nc[nH]n4)cc32)C1 [Example 204, 6-fluoro-3-((1S,3R)-3-(2-(2-fluorophenyl)-6-(1H-1,2,4-triazol-3-yl)-1H-imidazo[4,5-c]pyridin-1-yl)cyclohexyl)-2,3-dihydro-4H-benzo[e][1,3]oxazin-4-one] |
